# Assay results as given in ChEMBL document CHEMBL1137233, “Synthesis and cardiac effects of 3,4-dihydropyrimidin-2(1H)-one-5 carboxylates” (Bioorg Med Chem Lett, 2006).
# Active and inactive are the calls of the source. The calls are words filed in the database; no cut-off is given here.
# Legend:
# Format in all cases: functional
# Riparian frogs [1] = experiment: Positive inotropic action measured as increase in force of contraction in isolated perfused frog heart; conditions: Hoplobatrachus tigerinus
# Riparian frogs [2] = experiment: Negative chronotropic action measured as decrease in rate of contraction in isolated perfused frog heart; conditions: Hoplobatrachus tigerinus
# Riparian frogs [3] = experiment: Increase in cardiac output in isolated perfused frog heart; conditions: Hoplobatrachus tigerinus
# Riparian frogs [4] = experiment: Increase in cardiac output in isolated perfused frog heart at 1 mg/ml; conditions: Hoplobatrachus tigerinus
# Riparian frogs [5] = experiment: Positive inotropic action measured as increase in force of contraction in isolated perfused frog heart at 500 ug/ml; conditions: Hoplobatrachus tigerinus
# Riparian frogs [6] = experiment: Increase in cardiac output in isolated perfused frog heart at 500 ug/ml; conditions: Hoplobatrachus tigerinus
# Riparian frogs [7] = experiment: Positive inotropic action measured as increase in force of contraction in isolated perfused frog heart at 1 mg/ml; conditions: Hoplobatrachus tigerinus
# [8] = molecular target: Adrenergic receptor beta (Homo sapiens) (UniProt P08588+P07550+P13945); experiment: Antagonist activity at adrenergic beta receptor assessed as inhibition of adrenalin effect
# Riparian frogs [9] = experiment: Decrease in cardiac output in isolated perfused frog heart; conditions: Hoplobatrachus tigerinus
# Riparian frogs [10] = experiment: Negative inotropic action in isolated perfused frog heart; conditions: Hoplobatrachus tigerinus
# Riparian frogs [11] = experiment: Effect on rate of contraction in isolated perfused frog heart; conditions: Hoplobatrachus tigerinus
# Riparian frogs [12] = experiment: Effect on force of contraction in isolated perfused frog heart; conditions: Hoplobatrachus tigerinus
# Riparian frogs [13] = experiment: Effect on cardiac output in isolated perfused frog heart; conditions: Ranidae
Compound,Activity (Riparian frogs [1]),Activity (Riparian frogs [2]),Activity (Riparian frogs [3]),other results
CC1=C(C(=O)Oc2ccccc2)C(c2cccc(O)c2)NC(=O)N1 (stereo not given),Dose-dependent effect,Dose-dependent effect,Active,
CCOC(=O)C1=C(C)NC(=O)NC1c1ccc(-c2ccccc2)cc1 (stereo not given),,,,Activity (Riparian frogs [4]): Active; Activity (Riparian frogs [5]): Active; Activity (Riparian frogs [6]): Active; Activity (Riparian frogs [7]): Active
COC(=O)C1=C(C)NC(=O)NC1c1ccccc1Cl (stereo not given),,Active,,Activity [8]: Active; Activity (Riparian frogs [9]): Active; Activity (Riparian frogs [10]): Active
CCOC(=O)C1=C(C)NC(=O)NC1c1ccccc1[N+](=O)[O-] (stereo not given),,,,Activity (Riparian frogs [11]): inactive; Activity (Riparian frogs [12]): inactive; Activity (Riparian frogs [13]): inactive
CCOC(=O)C1=C(C)NC(=O)NC1C(C)C (stereo not given),Dose-dependent effect,Dose-dependent effect,Active,
CCOC(=O)C1=C(C)NC(=O)NC1c1ccc(O)cc1 (stereo not given),Dose-dependent effect,Dose-dependent effect,Active,
CCOC(=O)C1=C(C)NC(=O)NC1c1ccccc1Cl (stereo not given),,Active,,Activity [8]: Active; Activity (Riparian frogs [9]): Active; Activity (Riparian frogs [10]): Active
CCOC(=O)C1=C(C)NC(=O)NC1c1ccc(OC)cc1 (stereo not given),Active,Active,Active,
CCOC(=O)C1=C(C)NC(=O)NC1c1cccc(O)c1 (stereo not given),Dose-dependent effect,Dose-dependent effect,Active,
